Species: Rattus norvegicus
Assay: DrugMatrix - Regimen: Daily Repeat
Assay type: toxicity, organism-based, Sprague-Dawley
Set-up: regimen Daily Repeat, gender Male, age 6-8 weeks
Conditions: in vivo, po, route oral GAVAGE, […]
[1] = 0 mg/kg, 72 h, tissue Blood, dose level Control, time 3 day
[2] = 0 mg/kg, 72 h, tissue Plasma, dose level Control, time 3 day
[3] = 0 mg/kg, 120 h, tissue Blood, dose level Control, time 5 day
[4] = 0 mg/kg, 120 h, tissue Plasma, dose level Control, time 5 day
[5] = 72 h, tissue Blood, dose 6.3 mg/Kg, dose level Low, time 3 day
[6] = 72 h, tissue Plasma, dose 6.3 mg/Kg, dose level Low, time 3 day
[7] = 120 h, tissue Blood, dose 6.3 mg/Kg, dose level Low, time 5 day
[8] = 120 h, tissue Plasma, dose 6.3 mg/Kg, dose level Low, time 5 day

In the case of ZIRCONIUM(IV) CHLORIDE, the “ABSOLUTE BASOPHIL” value [1] is reported as 0 CELLS/uL, the “ABSOLUTE EOSINOPHIL” value [1] is reported as 13.67 CELLS/uL and the “ABSOLUTE LYMPHOCYTE” value [1] is reported as 10069.5 CELLS/uL. For the same substance, the “ABSOLUTE MONOCYTE” value [1] was 50 CELLS/uL, the “ABSOLUTE SEGMENTED NEUTROPHIL” value [1] was 516.83 CELLS/uL and the BASOPHIL [1] was 0%. For the same substance, the EOSINOPHIL [1] was 0.17%, the “ERYTHROCYTE COUNT” value [1] was 5.44 x10E6/uL and the HEMATOCRIT [1] was 33.88%. For the same substance, the HEMOGLOBIN [1] was 13.23 G/DL, the “LEUKOCYTE COUNT” value [1] was 10.65 x10E3/uL and the LYMPHOCYTE [1] was 94.67%. For the same substance, the “MEAN CORPUSCULAR HEMOGLOBIN” value [1] was 24.37 pg, the “MEAN CORPUSCULAR HEMOGLOBIN CONCENTRATION” value [1] was 39.05 G/DL and the MONOCYTE [1] was 0.67%. For the same substance, the NEUTROPHIL [1] was 4.5%, the “NUCLEATED RED BLOOD CELLS” value [1] was 0.33 /100WBC and the “PLATELET COUNT” value [1] was 414.5 x10E3/uL. For the same substance, the “ALANINE AMINOTRANSFERASE” value [2] was 72 u/L, the “ALKALINE PHOSPHATASE” value [2] was 375 u/L and the “ASPARTATE AMINOTRANSFERASE” value [2] was 87.5 u/L. The “BLOOD UREA NITROGEN” value [2] was 14 mg/dL, the “CARBON DIOXIDE” value [2] was 27.5 mmol/L and the CHLORIDE [2] was 95.83 MEQ/L. For the same substance, the CHOLESTEROL [2] was 68.5 mg/dL, the “CREATINE PHOSPHOKINASE” value [2] was 284.33 u/L and the CREATININE [2] was 0.16 mg/dL. The “LACTATE DEHYDROGENASE” value [2] was 101.83 u/L, the PHOSPHORUS [2] was 10.33 mg/dL and the POTASSIUM [2] was 5.22 MEQ/L. The “TOTAL BILIRUBIN” value [2] was 0.13 mg/dL, the “TOTAL PROTEIN” value [2] was 5.43 G/DL and the “URIC ACID” value [2] was 0.8 mg/dL. The “ABSOLUTE BASOPHIL” value [3] was 0 CELLS/uL, the “ABSOLUTE EOSINOPHIL” value [3] was 20.67 CELLS/uL and the “ABSOLUTE LYMPHOCYTE” value [3] was 11518.33 CELLS/uL. For the same substance, the “ABSOLUTE MONOCYTE” value [3] was 47 CELLS/uL, the “ABSOLUTE SEGMENTED NEUTROPHIL” value [3] was 614 CELLS/uL and the BASOPHIL [3] was 0%. For the same substance, the EOSINOPHIL [3] was 0.17%, the “ERYTHROCYTE COUNT” value [3] was 5.61 x10E6/uL and the HEMATOCRIT [3] was 34.25%. For the same substance, the “LEUKOCYTE COUNT” value [3] was 12.2 x10E3/uL, the LYMPHOCYTE [3] was 94.33% and the “MEAN CORPUSCULAR HEMOGLOBIN” value [3] was 23.83 pg. The “MEAN CORPUSCULAR HEMOGLOBIN CONCENTRATION” value [3] was 39.08 G/DL, the “MEAN CORPUSCULAR VOLUME” value [3] was 61.03 fL and the MONOCYTE [3] was 0.33%. The NEUTROPHIL [3] was 5.17%, the “NUCLEATED RED BLOOD CELLS” value [3] was 0 /100WBC and the “PLATELET COUNT” value [3] was 941.83 x10E3/uL. For the same substance, the “ALANINE AMINOTRANSFERASE” value [4] was 68.83 u/L, the “ALKALINE PHOSPHATASE” value [4] was 492.67 u/L and the “ASPARTATE AMINOTRANSFERASE” value [4] was 83.33 u/L. For the same substance, the “BLOOD UREA NITROGEN” value [4] was 14 mg/dL, the “CARBON DIOXIDE” value [4] was 37 mmol/L and the CHLORIDE [4] was 98.67 MEQ/L. The CHOLESTEROL [4] was 56.5 mg/dL, the “CREATINE PHOSPHOKINASE” value [4] was 167.33 u/L and the CREATININE [4] was 0.17 mg/dL. The GLUCOSE [4] was 157.5 mg/dL, the “LACTATE DEHYDROGENASE” value [4] was 104.83 u/L and the LIPASE [4] was 10 u/L. The PHOSPHORUS [4] was 10.43 mg/dL, the POTASSIUM [4] was 5.46 MEQ/L and the “TOTAL BILIRUBIN” value [4] was 0.17 mg/dL. The “TOTAL PROTEIN” value [4] was 5.72 G/DL, the “URIC ACID” value [4] was 0.85 mg/dL and the “ABSOLUTE BASOPHIL” value [5] was 0 CELLS/uL. For the same substance, the “ABSOLUTE EOSINOPHIL” value [5] was 0 CELLS/uL, the “ABSOLUTE LYMPHOCYTE” value [5] was 15285.67 CELLS/uL and the “ABSOLUTE MONOCYTE” value [5] was 331 CELLS/uL. For the same substance, the “ABSOLUTE SEGMENTED NEUTROPHIL” value [5] was 1716.67 CELLS/uL, the BASOPHIL [5] was 0% and the EOSINOPHIL [5] was 0%. The “ERYTHROCYTE COUNT” value [5] was 5.71 x10E6/uL, the HEMOGLOBIN [5] was 13.97 G/DL and the “LEUKOCYTE COUNT” value [5] was 17.33 x10E3/uL. The LYMPHOCYTE [5] was 88%, the “MEAN CORPUSCULAR HEMOGLOBIN CONCENTRATION” value [5] was 38.27 G/DL and the MONOCYTE [5] was 2%. The NEUTROPHIL [5] was 10%, the “NUCLEATED RED BLOOD CELLS” value [5] was 0 /100WBC and the “PLATELET COUNT” value [5] was 1101 x10E3/uL. For the same substance, the “ALANINE AMINOTRANSFERASE” value [6] was 74.67 u/L, the “ALKALINE PHOSPHATASE” value [6] was 510.33 u/L and the “ASPARTATE AMINOTRANSFERASE” value [6] was 87.33 u/L. The “BLOOD UREA NITROGEN” value [6] was 14.33 mg/dL, the “CARBON DIOXIDE” value [6] was 27 mmol/L and the CHOLESTEROL [6] was 56.33 mg/dL. For the same substance, the “CREATINE PHOSPHOKINASE” value [6] was 244 u/L, the CREATININE [6] was 0.15 mg/dL and the GLUCOSE [6] was 186.67 mg/dL. For the same substance, the “LACTATE DEHYDROGENASE” value [6] was 186 u/L, the PHOSPHORUS [6] was 12.53 mg/dL and the POTASSIUM [6] was 5.75 MEQ/L. The “TOTAL BILIRUBIN” value [6] was 0.1 mg/dL, the “ABSOLUTE BASOPHIL” value [7] was 0 CELLS/uL and the “ABSOLUTE EOSINOPHIL” value [7] was 0 CELLS/uL. The “ABSOLUTE LYMPHOCYTE” value [7] was 13034.67 CELLS/uL, the “ABSOLUTE MONOCYTE” value [7] was 344.67 CELLS/uL and the “ABSOLUTE SEGMENTED NEUTROPHIL” value [7] was 1154 CELLS/uL. The BASOPHIL [7] was 0%, the EOSINOPHIL [7] was 0% and the “ERYTHROCYTE COUNT” value [7] was 6.21 x10E6/uL. The HEMATOCRIT [7] was 38.6%, the HEMOGLOBIN [7] was 14.47 G/DL and the “LEUKOCYTE COUNT” value [7] was 14.53 x10E3/uL. The “MEAN CORPUSCULAR HEMOGLOBIN” value [7] was 23.3 pg, the “MEAN CORPUSCULAR HEMOGLOBIN CONCENTRATION” value [7] was 37.47 G/DL and the NEUTROPHIL [7] was 8%. The “NUCLEATED RED BLOOD CELLS” value [7] was 0 /100WBC, the “PLATELET COUNT” value [7] was 1100.67 x10E3/uL and the “ALANINE AMINOTRANSFERASE” value [8] was 68.67 u/L. For the same substance, the “ALKALINE PHOSPHATASE” value [8] was 472.33 u/L, the “ASPARTATE AMINOTRANSFERASE” value [8] was 84.33 u/L and the “BLOOD UREA NITROGEN” value [8] was 13.33 mg/dL. For the same substance, the “CARBON DIOXIDE” value [8] was 31.33 mmol/L, the CHOLESTEROL [8] was 55.33 mg/dL and the “CREATINE PHOSPHOKINASE” value [8] was 232 u/L. For the same substance, the CREATININE [8] was 0.14 mg/dL, the “LACTATE DEHYDROGENASE” value [8] was 112.67 u/L and the PHOSPHORUS [8] was 11.63 mg/dL. The POTASSIUM [8] was 6.33 MEQ/L, the “TOTAL BILIRUBIN” value [8] was 0.2 mg/dL and the “TOTAL PROTEIN” value [8] was 5.5 G/DL.

Reference: ChEMBL document CHEMBL3885881, “DrugMatrix”
